Data published in US8008456B2, “Compositions containing, methods involving, and uses of non-natural amino acids and polypeptides” (Ambrx, Inc., priority 2004, dated 2011).

Experiment: pH stability tests
Format: physicochemical
Procedure: This example provides the results of pH stability tests that were conducted on certain illustrative non-natural amino acids as an aid for predicting their properties for incorporation into non-natural amino acid polypeptides.

Measured: pH stability

COCCOC(=O)NCCO/N=C(\C)C(=O)Nc1ccccc1 [drawing 134]
<1%: pH 4.0, 1 hour | pH 4.0, 1 day | pH 4.0, 2 days | pH 4.0, 3 days | pH 4.0, 4 days | pH 4.0, 5 days | pH 4.0, 6 days | pH 4.0, 7 days | pH 4.0, 10 days | pH 5.0, 1 hour | pH 5.0, 1 day | pH 5.0, 2 days | pH 5.0, 3 days | pH 5.0, 4 days | pH 5.0, 5 days | pH 5.0, 6 days | pH 5.0, 7 days | pH 5.0, 10 days | pH 6.5, 1 hour | pH 6.5, 1 day | pH 6.5, 2 days | pH 6.5, 3 days | pH 6.5, 4 days | pH 6.5, 5 days | pH 6.5, 6 days | pH 6.5, 7 days | pH 6.5, 10 days | pH 7.4, 1 hour | pH 7.4, 1 day | pH 7.4, 2 days | pH 7.4, 3 days | pH 7.4, 4 days | pH 7.4, 5 days | pH 7.4, 6 days | pH 7.4, 7 days | pH 7.4, 10 days | pH 8.0, 1 hour | pH 8.0, 1 day | pH 8.0, 2 days | pH 8.0, 3 days | pH 8.0, 4 days | pH 8.0, 5 days | pH 8.0, 6 days | pH 8.0, 7 days | pH 8.0, 10 days

COCCOC(=O)NCCO/N=C(\C)C(=O)c1ccccc1
<1%: pH 4.0, 1 hour | pH 4.0, 1 day | pH 4.0, 2 days | pH 4.0, 3 days | pH 4.0, 4 days | pH 4.0, 5 days | pH 4.0, 6 days | pH 4.0, 7 days | pH 4.0, 10 days | pH 5.0, 1 hour | pH 5.0, 1 day | pH 5.0, 2 days | pH 5.0, 3 days | pH 5.0, 4 days | pH 5.0, 5 days | pH 5.0, 6 days | pH 5.0, 7 days | pH 5.0, 10 days | pH 6.5, 1 hour | pH 6.5, 1 day | pH 6.5, 2 days | pH 6.5, 3 days | pH 6.5, 4 days | pH 6.5, 5 days | pH 6.5, 6 days | pH 6.5, 7 days | pH 6.5, 10 days | pH 7.4, 1 hour | pH 7.4, 1 day | pH 7.4, 2 days | pH 7.4, 3 days | pH 7.4, 4 days | pH 7.4, 5 days | pH 7.4, 6 days | pH 7.4, 7 days | pH 7.4, 10 days | pH 8.0, 1 hour | pH 8.0, 1 day | pH 8.0, 2 days | pH 8.0, 3 days | pH 8.0, 4 days | pH 8.0, 5 days | pH 8.0, 6 days | pH 8.0, 7 days | pH 8.0, 10 days
